Results published in US20040076974A1, “Liver necrosis predictive genes” (priority 2002, published 2004).
Like-named read-outs stand apart in the source and are kept apart here.

Tested on: Sprague Dawley rats
Details: for Liver Necrosis / Score (histopathology liver necrosis severity score): rat, intraperitoneal; for Liver Necrosis: 72 hours after treatment; for Score (histopathology liver necrosis severity score): 72 hours, 1 = not remarkable, 2 and higher increasing severity
Method in brief: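 Toxicity calls (necrosis present or absent at 72 h) and histopathology scores were correlated with tissue gene expression from Crl:CD Sprague Dawley rats. Animals, usually 3 treated with compound by i.p. route and 3 given vehicle, were killed at 6, 24 or 72 h and tissues frozen immediately in liquid nitrogen.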

Structure (SMILES): CCC1(c2ccccc2)C(=O)NC(=O)NC1=O [phenobarbital]
- Liver Toxicity Necrosis Classification (72 h, dose 20): no
- Liver Toxicity Necrosis Classification (72 h, dose 80): no
- Liver Toxicity Necrosis Classification (compound-dose group at 72 h, dose 20): no
- Liver Toxicity Necrosis Classification (compound-dose group at 72 h, dose 80): no
- Liver Toxicity Necrosis Classification (compound-dosegroup at 72 h, dose 20): no
- Liver Toxicity Necrosis Classification (compound-dosegroup at 72 h, dose 80): no
- Liver Necrosis (dose 20 mg/kg): no
- Score (histopathology liver necrosis severity score) (dose 20 mg/kg): 1
- Liver Necrosis (dose 80 mg/kg): no
- Score (histopathology liver necrosis severity score) (dose 80 mg/kg): 1
